Assay results from patent publication US20260092074A1, “Annelated Pyridines as Steroidogenesis Inhibitors, Preparation Method and Use Thereof” (Guangzhou Vinnocent Pharmaceutical Limited, priority 2022, published 2026).

Experiments:
human CYP11B1 = target: T1, human CYP11B1 (Homo sapiens, UniProt P15538); assay: Inhibition of hCYP11B1 in transfected V79 cells; assay type: cell-based; conditions: hamster V79 cells expressing human CYP11B1; substrate 11-deoxycortisol 200 nM
T1 construct: expressed in transfected cells
T1 sequence (P15538 25-503): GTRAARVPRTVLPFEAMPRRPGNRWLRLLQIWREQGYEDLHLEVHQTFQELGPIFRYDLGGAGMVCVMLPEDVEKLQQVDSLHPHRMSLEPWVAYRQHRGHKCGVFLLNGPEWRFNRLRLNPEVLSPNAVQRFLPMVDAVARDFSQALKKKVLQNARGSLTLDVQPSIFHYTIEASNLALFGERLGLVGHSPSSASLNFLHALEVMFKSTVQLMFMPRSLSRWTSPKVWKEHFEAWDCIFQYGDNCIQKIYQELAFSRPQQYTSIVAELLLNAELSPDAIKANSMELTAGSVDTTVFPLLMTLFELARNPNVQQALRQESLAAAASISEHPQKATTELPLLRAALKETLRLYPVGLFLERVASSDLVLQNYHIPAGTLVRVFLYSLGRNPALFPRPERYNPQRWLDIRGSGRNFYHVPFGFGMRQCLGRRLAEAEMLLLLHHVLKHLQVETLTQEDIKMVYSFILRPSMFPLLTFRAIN
Summary of the method: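 Reactions started with 200 nM 11-deoxycortisol, ran for 30 min and were stopped with ethyl acetate, after a 2 h compound preincubation. The host was stably transfected V79 hamster cells carrying human CYP11B1 plus rat P450 reductase. Percent inhibition, from LC-MS/MS or HPLC (260 nm) quantitation of substrate and product, gave the IC50.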

human CYP11B2 = target: T2, human CYP11B2 (Homo sapiens, UniProt P19099); assay: Inhibition of hCYP11B2 in transfected V79 cells; assay type: cell-based; conditions: hamster V79 cells expressing human CYP11B2; substrate 11-deoxycorticosterone 200 nM
T2 construct: expressed in transfected cells
T2 sequence (P19099 25-503): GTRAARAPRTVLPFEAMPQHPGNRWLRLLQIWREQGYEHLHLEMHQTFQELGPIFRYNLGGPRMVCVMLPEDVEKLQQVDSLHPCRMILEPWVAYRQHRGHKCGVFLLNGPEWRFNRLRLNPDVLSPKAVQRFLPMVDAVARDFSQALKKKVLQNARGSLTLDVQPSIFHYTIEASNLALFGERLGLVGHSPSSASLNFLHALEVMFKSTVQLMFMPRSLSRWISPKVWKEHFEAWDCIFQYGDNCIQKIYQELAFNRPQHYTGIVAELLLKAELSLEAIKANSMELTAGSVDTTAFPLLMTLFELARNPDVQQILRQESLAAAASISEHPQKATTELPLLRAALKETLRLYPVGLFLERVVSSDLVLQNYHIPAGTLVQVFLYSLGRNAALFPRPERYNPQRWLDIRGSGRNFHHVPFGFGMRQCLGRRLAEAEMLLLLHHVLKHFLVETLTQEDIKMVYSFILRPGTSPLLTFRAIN
Summary of the method: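 The substrate (200 nM, 30 min) was added after a 2 hour compound pre-incubation in lentivirus-transduced V79 cells stably expressing human CYP11B2 plus rat NADPH-P450 reductase.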

IC50 (human CYP11B1) [nM]	IC50 (human CYP11B2) [nM]	Structure (SMILES)
16	0.8	COc1cccc(S(=O)(=O)N2CC(S(=O)(=O)N3CCSc4c(-c5ccc(C#N)cc5)cncc43)C2)c1 [S79, 4-(4-((1-((3-Methoxyphenyl)sulfonyl)azetidin-3-yl)sulfonyl)-3,4-dihydro-2H-pyrido[4,3-b][1,4]thiazin-8-yl)benzonitrile]
18	0.6	N#Cc1ccc(CN2CC(S(=O)(=O)N3CCSc4c(-c5ccc(C#N)cc5)cncc43)C2)cc1 [S80, 4-(4-((1-(4-Cyanobenzyl)azetidin-3-yl)sulfonyl)-3,4-dihydro-2H-pyrido[4,3-b][1,4]thiazin-8-yl)benzonitrile]
19	0.4	N#Cc1ccc(-c2cncc3c2SCCN3S(=O)(=O)C2CN(Cc3cccc(C#N)c3)C2)cc1 [S81, 3-((3-((8-(4-Cyanophenyl)-2,3-dihydro-4H-pyrido[4,3-b][1,4]thiazin-4-yl)sulfonyl)azetidin-1-yl)methyl)benzonitrile]
9.4	0.4	N#Cc1ccc(-c2cncc3c2SCCN3S(=O)(=O)C2CN(Cc3ccc(F)cc3)C2)cc1 [S82, 4-(4-((1-(4-Fluorobenzyl)azetidin-3-yl)sulfonyl)-3,4-dihydro-2H-pyrido[4,3-b][1,4]thiazin-8-yl)benzonitrile]
21	0.8	N#Cc1ccc(-c2cncc3c2SCCN3S(=O)(=O)C2CN(Cc3cccc(F)c3)C2)cc1 [S83, 4-(4-((1-(3-Fluorobenzyl)azetidin-3-yl)sulfonyl)-3,4-dihydro-2H-pyrido[4,3-b][1,4]thiazin-8-yl)benzonitrile]
57	1.1	COc1ccc(CN2CC(S(=O)(=O)N3CCSc4c(-c5ccc(C#N)cc5)cncc43)C2)cc1 [S84, 4-(4-((1-(4-Methoxybenzyl)azetidin-3-yl)sulfonyl)-3,4-dihydro-2H-pyrido[4,3-b][1,4]thiazin-8-yl)benzonitrile]
37	0.9	COc1cccc(CN2CC(S(=O)(=O)N3CCSc4c(-c5ccc(C#N)cc5)cncc43)C2)c1 [S85, 4-(4-((1-(3-Methoxybenzyl)azetidin-3-yl)sulfonyl)-3,4-dihydro-2H-pyrido[4,3-b][1,4]thiazin-8-yl)benzonitrile]
1540	22	CC(=O)Nc1ccccc1C(=O)N1CCSc2c(-c3ccc(C#N)cc3)cncc21 [S86, N-(2-(8-(4-Cyanophenyl)-3,4-dihydro-2H-pyrido[4,3-b][1,4]thiazine-4-carbonyl)phenyl) acetamide]
522	12	N#Cc1ccc(-c2cncc3c2SCCN3C(=O)c2cccc(C(F)(F)F)c2)cc1 [S87, 4-(4-(3-(Trifluoromethyl)benzoyl)-3,4-dihydro-2H-pyrido[4,3-b][1,4]thiazin-8-yl)benzonitrile]
251	6.8	N#Cc1ccc(-c2cncc3c2SCCN3C(=O)c2ccc(C(F)(F)F)cc2)cc1 [S88, 4-(4-(4-(Trifluoromethyl)benzoyl)-3,4-dihydro-2H-pyrido[4,3-b][1,4]thiazin-8-yl)benzonitrile]
2850	43	Cc1ccc(C(=O)N2CCSc3c(-c4ccc(C#N)cc4)cncc32)cc1 [S89, 4-(4-(4-Methylbenzoyl)-3,4-dihydro-2H-pyrido[4,3-b][1,4]thiazin-8-yl)benzonitrile]
4440	64	Cc1ccccc1C(=O)N1CCSc2c(-c3ccc(C#N)cc3)cncc21 [S90, 4-(4-(2-Methylbenzoyl)-3,4-dihydro-2H-pyrido[4,3-b][1,4]thiazin-8-yl)benzonitrile]
3650	44	Cc1cccc(C(=O)N2CCSc3c(-c4ccc(C#N)cc4)cncc32)c1 [S91, 4-(4-(3-Methylbenzoyl)-3,4-dihydro-2H-pyrido[4,3-b][1,4]thiazin-8-yl)benzonitrile]
856	13	N#Cc1ccc(-c2cncc3c2SCCN3C(=O)c2ccc(Cl)cc2)cc1 [S92, 4-(4-(4-Chlorobenzoyl)-3,4-dihydro-2H-pyrido[4,3-b][1,4]thiazin-8-yl)benzonitrile]
1310	24	N#Cc1ccc(-c2cncc3c2SCCN3C(=O)c2cccc(Cl)c2)cc1 [S93, 4-(4-(3-Chlorobenzoyl)-3,4-dihydro-2H-pyrido[4,3-b][1,4]thiazin-8-yl)benzonitrile]
2660	38	N#Cc1ccc(C(=O)N2CCSc3c(-c4ccc(C#N)cc4)cncc32)cc1 [S94, 4-(4-(4-Cyanobenzoyl)-3,4-dihydro-2H-pyrido[4,3-b][1,4]thiazin-8-yl)benzonitrile]
2060	79	N#Cc1ccc(-c2cncc3c2SCCN3C(=O)c2cccc(C#N)c2)cc1 [S95, 3-(8-(4-Cyanophenyl)-3,4-dihydro-2H-pyrido[4,3-b][1,4]thiazine-4-carbonyl)benzonitrile]
643	11	COc1cccc(C(=O)N2CCSc3c(-c4ccc(C#N)cc4)cncc32)c1 [S96, 4-(4-(3-Methoxybenzoyl)-3,4-dihydro-2H-pyrido[4,3-b][1,4]thiazin-8-yl)benzonitrile]
4210	21	COc1ccc(C(=O)N2CCSc3c(-c4ccc(C#N)cc4)cncc32)cc1 [S97, 4-(4-(4-Methoxybenzoyl)-3,4-dihydro-2H-pyrido[4,3-b][1,4]thiazin-8-yl)benzonitrile]
1160	11	COc1ccc(C(=O)N2CCSc3c(-c4cc5cc(C#N)ccc5o4)cncc32)cc1 [S98, 2-(4-(4-Methoxybenzoyl)-3,4-dihydro-2H-pyrido[4,3-b][1,4]thiazin-8-yl)benzofuran-5-carbonitrile]
703	6.9	N#Cc1ccc(-c2cncc3c2SCC(=O)N3)cc1 [S99, 4-(3-Oxo-3,4-dihydro-2H-pyrido[4,3-b][1,4]thiazin-8-yl)benzonitrile]
966	10.6	N#Cc1ccc(-c2cncc3c2SCC(=O)N3C(=O)c2ccc(Cl)cc2)cc1 [S100, 4-(4-(4-chlorobenzoyl)-3-oxo-3,4-dihydro-2H-pyrido[4,3-b][1,4]thiazin-8-yl)benzonitrile]
2670	25	N#CC1CN(S(=O)(=O)N2CCSc3c(-c4cc5cc(Cl)ccc5o4)cncc32)C1 [S101, 1-((8-(5-Chlorobenzofuran-2-yl)-2,3-dihydro-4H-pyrido[4,3-b][1,4]thiazin-4-yl)sulfonyl) azetidine-3-carbonitrile]
3710	36	O=S(=O)(N1CCn2cnnc2C1)N1CCSc2c(-c3cc4cc(Cl)ccc4o3)cncc21 [S102, 8-(5-Chlorobenzofuran-2-yl)-4-((5,6-dihydro-[1,2,4]triazolo[4,3-a]pyrazin-7 (8H)-yl)sulfonyl)-3,4-dihydro-2H-pyrido[4,3-b][1,4]thiazine]
955	5	O=S(=O)(C1CN(C2COC2)C1)N1CCSc2c(-c3cc4cc(Cl)ccc4o3)cncc21 [S103, 8-(5-Chlorobenzofuran-2-yl)-4-((1-(oxetan-3-yl)azetidin-3-yl)sulfonyl)-3,4-dihydro-2H-pyrido[4,3-b][1,4]thiazine]
